Laboratory results: US12636274B2, “Pharmaceutical compositions and methods for systemic treatment of solid tumors” (7 HILLS INTERESTS LLC, priority 2014, dated 2026)
Marks after values point to notes of the source that are not given here.

Columns and labels:
ICAM-1 = assay: Cell migration across ICAM-1 membrane toward SDF-1; assay type: cell-based; settings: FIG. 5; different concentrations; SDF-1 in bottom part
Description: Referring now to FIG. 5, an apparatus for testing VCAM-1 and ICAM-1 cell migration, where the cells are initially placed in the top part of the apparatus including a member including VCAM-1 or ICAM-1, with the bottom part of the apparatus initially including SDF-1. Cell migration is then measured from top part to the bottom part for different concentration of CDPD 1, a compound of Formula (I) of VCAM-1 and ICAM-1 impregnated membrane.

[1] = test system: CT26 colon cancer syngeneic tumor; assay: Study 2: CT26 syngeneic tumor model in Balb/c mice; assay type: in vivo, Mouse (Mus musculus); settings: for % Tumor Growth Inhibition: 1 mg/kg IP QD at 4 h; for Average Tumor Volume, Mean: 1 mg/kg IP QD
Description: Mouse colon carcinoma CT26 cells were obtained from American Type Culture Collection (ATCC), USA. Cells were grown in RPMI-1640 medium (Sigma, Cat # R6504) supplemented with 10% FBS (Invitrogen, Cat #10438-026), and 1% penicillin streptomycin (Thermo Fisher Scientific, Cat #15140-122). To establish allografts, 1 million CT26 cells were suspended in 50 μL of serum-free medium and mixed at 1:1 ratio with matrigel before implanting subcutaneously into the right flank of mice.
Prior to inoculation, the skin on the injection site was swabbed with alcohol. To establish allografts, CT26 cells were suspended in serum free medium at a concentration of (1×10^6)/50 μL, mixed with equal volume of matrigel (1:1 ratio) and 100 μL of this mixture was injected to each mouse by subcutaneous implantation using a 1 mL BD syringe attached to a 24 gauge needle.
CT26 tumor xenografts were measured after approximately 1 week of cell inoculation when they become palpable. When the average tumor volume reaches around 110 mm^3, animals were randomized into treatment groups group maintaining the average tumor volume of each group similar across groups for Study 1 and Study 2. In Study 3, the animals were randomized on the basis of body weights +1 day post cell implantation.
Tumor dimensions (length and breadth) were measured on days 0 (animal randomization based on tumor volume) and thrice weekly thereafter until study termination. Tumor volumes were calculated using the formula (b^2*l)*0.52 where l=length, b=breadth (Dusan Djokovic et al., BMC Cancer, 2010, 10:641). Tumor growth inhibition was calculated after normalizing the tumor volume on a given day to that on day 1.
Mean body weight loss and percent changes were calculated for each group. Similarly, mean tumor volume and percent tumor growth inhibition were calculated. The percent tumor growth inhibition (% TGI) as a function of anti-tumor efficacy were computed with respect to untreated vehicle control by comparing to the tumor volumes of day 1 using formula described below: % TGI=[1−(Treatment TVFinal−Treatment TVInitial)/(Control TVFinal−Control TVInitial)]*100
The test agent, Compound 1 was evaluated in CT26 syngeneic tumor model in Balb/c mice. Compound 1 was administered in mice when the starting tumor volume reached 110±6.9 mm^3 seven days after implantation of CT26 cells.

[2] = Safety margin (STD 10) and autoimmune toxicity; settings: in vivo

Structure (SMILES): O=C(OCCOCCOCCOC(=O)N(Cc1cccs1)Cc1cccs1)N(Cc1cccs1)Cc1cccs1 [Compound 1, 3-oxo-1-(2-thienyl)-2-(2-thienylmethyl)-4,7,10-trioxa-2-azadodecan-12-yl bis(2-thienylmethyl)carbamate]
- cell migration, ICAM-1 (ICAM-1): migration enhancement
- % Tumor Growth Inhibition ([1]; Day 2): −6.6%
- % Tumor Growth Inhibition ([1]; Day 4): 33.0%
- % Tumor Growth Inhibition ([1]; Day 6): 38.9%
- % Tumor Growth Inhibition ([1]; Day 8): 31.6%
- % Tumor Growth Inhibition ([1]; Day 10): 33.5%
- % Tumor Growth Inhibition ([1]; Day 13): 46.0%
- Average Tumor Volume, Mean ([1]; Day 1): 111 mm^3
- Average Tumor Volume, Mean ([1]; Day 2): 171 mm^3
- Average Tumor Volume, Mean ([1]; Day 4): 244 mm^3
- Average Tumor Volume, Mean ([1]; Day 6): 343 mm^3
- Average Tumor Volume, Mean ([1]; Day 8): 545 mm^3
- Average Tumor Volume, Mean ([1]; Day 10): 744* mm^3
- Average Tumor Volume, Mean ([1]; Day 13): 1038^‡ mm^3
- autoimmune toxicity [2]: no autoimmune toxicity
- safety margin (STD 10) [2]: > 300 times therapeutic exposure
